Converted amounts (≈) assume the structure as drawn. Read-outs that look alike come from different tables or passages of the source.
Key:
[1] = UV-measured solubility of 5-HTP and carbidopa; format: physicochemical
Protocol: The individual solubility of 5-HTP and carbidopa was assessed and compared to the data in the literature.
Table 2. Solubility results

[2] = cited from earlier work
[3] = Second wave of solubility testing with acidified vehicles and combinations; format: physicochemical; conditions: 40% (w/v) HP-3-cyclodextrin + 38.4 mg/mL citric acid, pH2.0, compared to similar solution containing only 20% (w/v) HP-3-cyclodextrin
Protocol: Based on the outcome of these solubility tests, a second wave of solubility testing was performed, with acidified vehicles and combinations thereof.
The highest solubility was obtained in 40% (w/v) HP-3-cyclodextrin + 38.4 mg/mL citric acid, pH2.0, for both APIs (Active Pharmaceutical Ingredients). The marginal increase in solubility in this vehicle, compared to similar solution containing only 20% (w/v) HP-3-cyclodextrin is only -20% for 5-HTP and -40% for carbidopa. Therefore, and since dosing of HP-3-cyclodextrin is limited to about 8 - 16 g/day (for max. 14 days, short-term Phase I studies), it was foreseen to use the vehicle containing only 20% HP-b-cyclodextrin as the first choice for dosing safety reasons, i.e.: • for a 600 mg 5-HTP/60 mg carbidopa dose with a 30 mg/mL 5-HTP/3 mg/mL carbidopa solution in solvent A (40% HP-β-CD), 20 mL solution is required, corresponding with an intake of 8 g HP-β-CD, and; • for a 600 mg 5-HTP/60 mg carbidopa dose with a 30 mg/mL 5-HTP/3 mg/mL carbidopa solution in solvent B (20% HP-β-CD), 20 mL solution is required, corresponding with an intake of only 4 g HP-β-CD.

[4] = Screening stress test study on separate reference solutions and a mix solution; format: physicochemical
Protocol: Stress studies were performed on the separated reference solutions and a mix solution under heat (60°C for 24 h), and under acidic, basic, or oxidative (H2O2) conditions, and ICH light (700 W/m^2 for 8 h) conditions.

[5] = 0.1N HCl, simulated gastric fluid, 0.1N HCI
[6] = 5% Soluplus in water, aqueous with cosolvent or surfactant or cyclodextrin
[7] = 10% w/v M-β-cyclodextrin in water (Kleptose crysmeb), aqueous with cosolvent or surfactant or cyclodextrin
[8] = 20% w/v HP-β-cyclodextrin in water (Kleptose), aqueous with cosolvent or surfactant or cyclodextrin, 20% w/v HP-β-cydodextrin in water (Kleptose)
[9] = Ethanol, organic solvent or mixture
[10] = Kolliphor RH40 (5% in water), aqueous with cosolvent or surfactant or cyclodextrin
[11] = PEG400, organic solvent or mixture
[12] = Polysorbate 20 (5% in water), aqueous with cosolvent or surfactant or cyclodextrin
[13] = Propylene glycol, organic solvent or mixture
[14] = Sepiclear (5% in water), aqueous with cosolvent or surfactant or cyclodextrin
[15] = Solutol HS15 (5% in water), aqueous with cosolvent or surfactant or cyclodextrin
[16] = Transcutol HP, organic solvent or mixture
[17] = oil or lipid, Labrafac lipophile, accurate measurement not possible due to diverging spectrum
[18] = oil or lipid, Sunflower oil, accurate measurement not possible due to diverging spectrum
[19] = pH 5, aqueous buffer, Phosphate buffer, pH5
[20] = pH 6.8, aqueous buffer, Phosphate buffer, pH6.8
[21] = pH 9, aqueous buffer, Phosphate buffer, pH9
[22] = separate solution, ICH light (700 W/m^2 for 8 h)
[23] = separate solution, acidic conditions, immediate, no further degradation after 24 h
[24] = separate solution, basic medium, after 24 h
[25] = separate solution, heat (60°C for 24 h)
[26] = separate solution, oxidative (H2O2) stress, T0 and T24h

solubility [1, 5] [µg/mL]	solubility [1, 6] [µg/mL]	solubility [1, 7] [µg/mL]	solubility [1, 8] [µg/mL]	solubility [1, 9] [µg/mL]	solubility [1, 10] [µg/mL]	solubility ([1]; Labrasol ALF, oil or lipid) [µg/mL]	solubility [1, 11] [µg/mL]	solubility [1, 12] [µg/mL]	solubility [1, 13] [µg/mL]	solubility [1, 14] [µg/mL]	solubility [1, 15] [µg/mL]	solubility [1, 16] [µg/mL]	solubility [1, 17] [µg/mL]	solubility [1, 18] [µg/mL]	solubility [1, 19] [µg/mL]	solubility [1, 20] [µg/mL]	solubility [1, 21] [µg/mL]	marginal increase in solubility [3] [%]	Compound	solubility ([2]; Water)	also measured
29400 (≈ 133 mM)	12400 (≈ 56.3 mM)	13500 (≈ 61.3 mM)	17000 (≈ 77.2 mM)	5100 (≈ 23.2 mM)	9500 (≈ 43.1 mM)	4800 (≈ 21.8 mM)	2300 (≈ 10.4 mM)	9400 (≈ 42.7 mM)	35400 (≈ 161 mM)	14500 (≈ 65.8 mM)	9000 (≈ 40.9 mM)	13700 (≈ 62.2 mM)	< 10000	< 10000	8400 (≈ 38.1 mM)	8900 (≈ 40.4 mM)	9300 (≈ 42.2 mM)	-20	N[C@@H](Cc1c[nH]c2ccc(O)cc12)C(=O)O [5-HTP, (2S)-2-amino-3-(5-hydroxy-1H-indol-3-yl)propanoic acid]	1 - 10^(1) mg/mL	degradation ([4]; mix solution of 5-HTP and carbidopa, all stress conditions): mainly light and acidic stress influenced the degradation; degradation [4, 22]: about 15%; degradation [4, 23]: not sensitive; degradation [4, 24]: about 15%; degradation [4, 25]: not sensitive; degradation [4, 26]: not sensitive
11800 (≈ 52.2 mM)	12900 (≈ 57 mM)	2800 (≈ 12.4 mM)	3100 (≈ 13.7 mM)	70 (≈ 0.309 mM)	1500 (≈ 6.63 mM)	12800 (≈ 56.6 mM)	1500 (≈ 6.63 mM)	1400 (≈ 6.19 mM)	15000 (≈ 66.3 mM)	3100 (≈ 13.7 mM)	1400 (≈ 6.19 mM)	600 (≈ 2.65 mM)	< 10000	< 10000	1500 (≈ 6.63 mM)	2100 (≈ 9.28 mM)	4700 (≈ 20.8 mM)	-40	C[C@@](Cc1ccc(O)c(O)c1)(NN)C(=O)O [Carbidopa, (2S)-3-(3,4-dihydroxyphenyl)-2-hydrazinyl-2-methylpropanoic acid]	1 - 10 ^(2) mg/mL	solubility ([2]; 3N HCI): 100 - 1000 ^(3) mg/mL; solubility ([2]; Acetone): < 0.1 ^(3) mg/mL; solubility ([2]; Chloroform): < 0.1 ^(2) mg/mL; solubility ([2]; Ethanol): 0.1 - 1 ^(2) mg/mL; solubility ([2]; Ether): < 0.1 ^(3) mg/mL; solubility ([2]; Methanol): 1 - 10 ^(3) mg/mL; solubility ([2]; Methylene chloride): < 0.1 ^(3) mg/mL; degradation [4, 22]: about 88%; degradation [4, 23]: more than 20%; degradation [4, 24]: about 30%; degradation [4, 25]: 90%; degradation [4, 26]: did not influence; stability in solution ([4]; stress studies, overall): very unstable in solution and is quickly degraded

Reference: patent EP3593819A1, “COMPOSITIONS FOR THERAPEUTIC USES CONTAINING 5-HTP AND CARBIDOPA” (Medday Pharmaceuticals, priority 2018, dated 2020)
